Reference: patent US20150119363A1, “METHODS OF TREATING BACTERIAL INFECTIONS” (Rampex Pharmaceuticals, Inc., priority 2012, published 2015)

Legend:
Test in all cases: Dose titration biapenem potentiation assay (MPC1)
Conditions in all cases: biapenem 1 μg/mL
KP1004 KPC-2 = format: cell-based, Klebsiella pneumoniae
Description: (§1) The potency and spectrum of β-lactamase inhibitors is also determined by assessing their biapenem potentiation activity in a dose titration potentiation assay using strains expressing serine carbapemenases (such as KPC). The potentiation effect is observed as the ability of BLI compounds to inhibit growth in the presence of sub-inhibitory concentration of biapenem. […] Biapenem is present in the test medium at 1 μg/mL. Compounds tested at the highest concentration of 40 μg/mL. […] Table 5 summarizes BLI potency of biapenem potentiation (MPC1). Biapenem MIC for each strain is also shown.

KP1008 KPC-2 = format: cell-based, Klebsiella pneumoniae
Description: as §1

EC1007 KPC-3 = format: cell-based, Escherichia coli
Description: as §1

ECL1004 NMC-A = format: cell-based, Enterobacter cloacae
Description: as §1

## Nc1nc(/C(=N/OCc2cc(=O)c(O)cn2O)C(=O)N[C@H]2CC[C@@H](CC(=O)O)OB2O)cs1 [Compound 62, 2-((3R)-3-((Z)-2-(2-aminothiazol-4-yl)-2-((1,5-dihydroxy-4-oxo-1,4-dihydropyridin-2-yl)methoxyimino)acetamido)-2-hydroxy-1,2-oxaborinan-6-yl)acetic acid]
KP1004 KPC-2
  BPM MPC1 KP1004 KPC-2: X (X = MPC1 of less than 1 μg/mL.)
KP1008 KPC-2
  BPM MPC1 KP1008 KPC-2: X (X = MPC1 of less than 1 μg/mL.)
EC1007 KPC-3
  BPM MPC1 EC1007 KPC-3: X (X = MPC1 of less than 1 μg/mL.)
ECL1004 NMC-A
  BPM MPC1 ECL1004 NMC-A: X (X = MPC1 of less than 1 μg/mL.)

## N[C@H]1CC[C@@H](CC(=O)N[C@H]2CC[C@@H](CC(=O)O)OB2O)CC1 [Compound 50, 2-((3R,6S)-3-(2-(4-aminocyclohexyl)acetamido)-2-hydroxy-1,2-oxaborinan-6-yl)acetic acid]
KP1004 KPC-2
  BPM MPC1 KP1004 KPC-2: X (X = MPC1 of less than 1 μg/mL.)
KP1008 KPC-2
  BPM MPC1 KP1008 KPC-2: X (X = MPC1 of less than 1 μg/mL.)
EC1007 KPC-3
  BPM MPC1 EC1007 KPC-3: X (X = MPC1 of less than 1 μg/mL.)
ECL1004 NMC-A
  BPM MPC1 ECL1004 NMC-A: X (X = MPC1 of less than 1 μg/mL.)

## Nc1nc(CC(=O)N[C@H]2CC[C@@H](CC(=O)O)OB2O)cs1 [Compound 39, 2-((3R,6S)-3-(2-(2-aminothiazol-4-yl)acetamido)-2-hydroxy-1,2-oxaborinan-6-yl)acetic acid]
KP1004 KPC-2
  BPM MPC1 KP1004 KPC-2: X (X = MPC1 of less than 1 μg/mL.)
KP1008 KPC-2
  BPM MPC1 KP1008 KPC-2: X (X = MPC1 of less than 1 μg/mL.)
EC1007 KPC-3
  BPM MPC1 EC1007 KPC-3: X (X = MPC1 of less than 1 μg/mL.)
ECL1004 NMC-A
  BPM MPC1 ECL1004 NMC-A: X (X = MPC1 of less than 1 μg/mL.)

## CSCCC(N)C(=O)N[C@H]1CC[C@@H](CC(=O)O)OB1O (stereo partly drawn) [Compound 41, 2-((3R,6S)-3-(2-amino-4-(methylthio)butanamido)-2-hydroxy-1,2-oxaborinan-6-yl)acetic acid]
KP1004 KPC-2
  BPM MPC1 KP1004 KPC-2: X (X = MPC1 of less than 1 μg/mL.)
KP1008 KPC-2
  BPM MPC1 KP1008 KPC-2: X (X = MPC1 of less than 1 μg/mL.)
EC1007 KPC-3
  BPM MPC1 EC1007 KPC-3: X (X = MPC1 of less than 1 μg/mL.)
ECL1004 NMC-A
  BPM MPC1 ECL1004 NMC-A: Y (Y = MPC1 of 1 μg/mL to 5 μg/mL.)

## N[C@H](CCCN/C(=N/C(=O)OCc1ccccc1)NC(=O)OCc1ccccc1)C(=O)N[C@H]1CC[C@@H](CC(=O)O)OB1O [Compound 44, 2-((3R,6S)-3-((R)-2-amino-5-((Z)-2,3-bis(benzyloxycarbonyl)guanidino)pentanamido)-2-hydroxy-1,2-oxaborinan-6-yl)acetic acid]
KP1004 KPC-2
  BPM MPC1 KP1004 KPC-2: X (X = MPC1 of less than 1 μg/mL.)
KP1008 KPC-2
  BPM MPC1 KP1008 KPC-2: X (X = MPC1 of less than 1 μg/mL.)
EC1007 KPC-3
  BPM MPC1 EC1007 KPC-3: X (X = MPC1 of less than 1 μg/mL.)
ECL1004 NMC-A
  BPM MPC1 ECL1004 NMC-A: Y (Y = MPC1 of 1 μg/mL to 5 μg/mL.)

## O=C(O)C[C@@H]1CC[C@H](NC(=O)C[C@@H]2CCCCN2)B(O)O1 [Compound 53, 2-((3R,6S)-2-hydroxy-3-(2-((S)-piperidin-2-yl)acetamido)-1,2-oxaborinan-6-yl)acetic acid]
KP1004 KPC-2
  BPM MPC1 KP1004 KPC-2: X (X = MPC1 of less than 1 μg/mL.)
KP1008 KPC-2
  BPM MPC1 KP1008 KPC-2: X (X = MPC1 of less than 1 μg/mL.)
EC1007 KPC-3
  BPM MPC1 EC1007 KPC-3: X (X = MPC1 of less than 1 μg/mL.)
ECL1004 NMC-A
  BPM MPC1 ECL1004 NMC-A: Y (Y = MPC1 of 1 μg/mL to 5 μg/mL.)

## NC1(CC(=O)N[C@H]2CC[C@@H](CC(=O)O)OB2O)CCCCC1 [Compound 51, 2-((3R,6S)-3-(2-(1-aminocyclohexyl)acetamido)-2-hydroxy-1,2-oxaborinan-6-yl)acetic acid]
KP1004 KPC-2
  BPM MPC1 KP1004 KPC-2: X (X = MPC1 of less than 1 μg/mL.)
KP1008 KPC-2
  BPM MPC1 KP1008 KPC-2: X (X = MPC1 of less than 1 μg/mL.)
EC1007 KPC-3
  BPM MPC1 EC1007 KPC-3: X (X = MPC1 of less than 1 μg/mL.)
ECL1004 NMC-A
  BPM MPC1 ECL1004 NMC-A: Y (Y = MPC1 of 1 μg/mL to 5 μg/mL.)

## O=C(O)C[C@@H]1CC[C@H](NC(=O)CCc2ccccc2)B(O)O1 [Compound 38, 2-((3R,6S)-2-hydroxy-3-(3-phenylpropanamido)-1,2-oxaborinan-6-yl)acetic acid]
KP1004 KPC-2
  BPM MPC1 KP1004 KPC-2: X (X = MPC1 of less than 1 μg/mL.)
KP1008 KPC-2
  BPM MPC1 KP1008 KPC-2: X (X = MPC1 of less than 1 μg/mL.)
EC1007 KPC-3
  BPM MPC1 EC1007 KPC-3: X (X = MPC1 of less than 1 μg/mL.)
ECL1004 NMC-A
  BPM MPC1 ECL1004 NMC-A: X (X = MPC1 of less than 1 μg/mL.)

## O=C(O)C[C@@H]1CC[C@H](NC(=O)Cc2cccnc2)B(O)O1 [Compound 43, 2-((3R,6S)-2-hydroxy-3-(2-(pyridin-3-yl)acetamido)-1,2-oxaborinan-6-yl)acetic acid]
KP1004 KPC-2
  BPM MPC1 KP1004 KPC-2: X (X = MPC1 of less than 1 μg/mL.)
KP1008 KPC-2
  BPM MPC1 KP1008 KPC-2: X (X = MPC1 of less than 1 μg/mL.)
EC1007 KPC-3
  BPM MPC1 EC1007 KPC-3: X (X = MPC1 of less than 1 μg/mL.)
ECL1004 NMC-A
  BPM MPC1 ECL1004 NMC-A: X (X = MPC1 of less than 1 μg/mL.)

## O=C(O)C[C@@H]1CC[C@H](NC(=O)Cc2ccncc2)B(O)O1 [Compound 49, 2-((3R,6S)-2-hydroxy-3-(2-(pyridin-4-yl)acetamido)-1,2-oxaborinan-6-yl)acetic acid]
KP1004 KPC-2
  BPM MPC1 KP1004 KPC-2: X (X = MPC1 of less than 1 μg/mL.)
KP1008 KPC-2
  BPM MPC1 KP1008 KPC-2: X (X = MPC1 of less than 1 μg/mL.)
EC1007 KPC-3
  BPM MPC1 EC1007 KPC-3: X (X = MPC1 of less than 1 μg/mL.)
ECL1004 NMC-A
  BPM MPC1 ECL1004 NMC-A: X (X = MPC1 of less than 1 μg/mL.)

## O=C(O)CC1C=CC[C@H](NC(=O)Cc2cccs2)B(O)O1 (stereo partly drawn) [Compound 64, 2-((3R)-2-hydroxy-3-(2-(thiophen-2-yl)acetamido)-2,3,4,7-tetrahydro-1,2-oxaborepin-7-yl)acetic acid]
KP1004 KPC-2
  BPM MPC1 KP1004 KPC-2: Y (Y = MPC1 of 1 μg/mL to 5 μg/mL.)
KP1008 KPC-2
  BPM MPC1 KP1008 KPC-2: X (X = MPC1 of less than 1 μg/mL.)
EC1007 KPC-3
  BPM MPC1 EC1007 KPC-3: X (X = MPC1 of less than 1 μg/mL.)
ECL1004 NMC-A
  BPM MPC1 ECL1004 NMC-A: X (X = MPC1 of less than 1 μg/mL.)

## Nc1cc(CC(=O)N[C@H]2CC[C@@H](CC(=O)O)OB2O)ccn1 [Compound 61, 2-((3R,6S)-3-(2-(2-aminopyridin-4-yl)acetamido)-2-hydroxy-1,2-oxaborinan-6-yl)acetic acid]
KP1004 KPC-2
  BPM MPC1 KP1004 KPC-2: X (X = MPC1 of less than 1 μg/mL.)
KP1008 KPC-2
  BPM MPC1 KP1008 KPC-2: X (X = MPC1 of less than 1 μg/mL.)
ECL1004 NMC-A
  BPM MPC1 ECL1004 NMC-A: X (X = MPC1 of less than 1 μg/mL.)

## O=C(O)C[C@@H]1CC[C@H](NC(=O)c2ccccc2)B(O)O1 [Compound 37, 2-((3R,6S)-3-benzamido-2-hydroxy-1,2-oxaborinan-6-yl)acetic acid]
KP1004 KPC-2
  BPM MPC1 KP1004 KPC-2: X (X = MPC1 of less than 1 μg/mL.)
KP1008 KPC-2
  BPM MPC1 KP1008 KPC-2: X (X = MPC1 of less than 1 μg/mL.)
EC1007 KPC-3
  BPM MPC1 EC1007 KPC-3: X (X = MPC1 of less than 1 μg/mL.)
ECL1004 NMC-A
  BPM MPC1 ECL1004 NMC-A: X (X = MPC1 of less than 1 μg/mL.)

## C[C@]1(Cn2ccnn2)[C@H](C(=O)N[C@H]2CC[C@@H](CC(=O)O)OB2O)N2C(=O)C[C@H]2S1(=O)=O [Compound 59, 2-[(3R,6S)-2-hydroxy-3-[(2S,3S,5R)-3-methyl-4,4,7-trioxo-3-(1H-1,2,3-triazol-1-ylmethyl)-4λ^6-thia-1-azabicyclo[3.2.0]heptane-2-amido]-1,2-oxaborinan-6-yl]acetic acid]
KP1004 KPC-2
  BPM MPC1 KP1004 KPC-2: Y (Y = MPC1 of 1 μg/mL to 5 μg/mL.)
KP1008 KPC-2
  BPM MPC1 KP1008 KPC-2: X (X = MPC1 of less than 1 μg/mL.)
EC1007 KPC-3
  BPM MPC1 EC1007 KPC-3: X (X = MPC1 of less than 1 μg/mL.)
ECL1004 NMC-A
  BPM MPC1 ECL1004 NMC-A: X (X = MPC1 of less than 1 μg/mL.)

## O=C(O)C[C@@H]1CC[C@H](NC(=O)c2cn(C3CC3)c3cc(N4CCNCC4)c(F)cc3c2=O)B(O)O1 [Compound 58, 2-((3R,6S)-3-(1-cyclopropyl-6-fluoro-4-oxo-7-(piperazin-1-yl)-1,4-dihydroquinoline-3-carboxamido)-2-hydroxy-1,2-oxaborinan-6-yl)acetic acid]
KP1004 KPC-2
  BPM MPC1 KP1004 KPC-2: Z (Z = MPC1 of greater than 5 μg/mL.)
KP1008 KPC-2
  BPM MPC1 KP1008 KPC-2: Z (Z = MPC1 of greater than 5 μg/mL.)
ECL1004 NMC-A
  BPM MPC1 ECL1004 NMC-A: Z (Z = MPC1 of greater than 5 μg/mL.)
